For one series, the system named is J774 cells. As to the kind of experiment: ACAT inhibitory action (anti-foaming action) in J774 cells. It is filed as cell-based. The following applies: Mus musculus, 10 μg/ml 25-OH cholesterol, 18 hours, cholesterol ester per protein, read-out: Enzyme (J774) IC50.
The subject of another series is HepG2 cells. Kind of series: ACAT inhibitory action (anti-foaming action) in HepG2 cells. Type of series: cell-based. The following applies: Homo sapiens, 10 μg/ml 25-OH cholesterol, 18 hours, cholesterol ester per protein, read-out: Enzyme (HepG2) IC50.
Series [1] in a line: Disintegration test (solubility in liquid No. 1 of the Japanese Pharmacopoeia). It is filed as physicochemical. The following applies: simulated gastric fluid, thermodynamic from solid; liquid No. 1 for disintegration test (Japanese Pharmacopoeia), pH 1.2, shaken two hours, room temperature, 0.45 μm filtrate. An excerpt: Compounds of the present invention and the compounds mentioned in the previously-filed Japanese Patent Applications Hei-09/88660 (hereinafter, referred to as “A”) and Hei-09/90146 (hereinafter, referred to as “B”) as controls were suspended in a liquid No. 1 for disintegration test regulated by the Japanese Pharmacopoeia, shaken for two hours, allowed to stand at room temperature for one hour and filtered through a membrane filter of 0.45 μm. Absorbance of a mixture of this filtrate with methanol in the same amounts was measured and, from the previously-determined ε1% 1cm values, solubility was calculated.

Converted amounts (≈) assume the structure as drawn.

For the molecule `COC(=O)c1cccc2oc(SCCN3CCN(CC(=O)Nc4c(C(C)C)cccc4C(C)C)CC3)nc12` [Example 5, 2-[4-[2-(4-methoxycarbonylbenzoxazol-2-ylthio)ethyl]-piperazin-1-yl]-N-(2,6-diisopropylphenyl)acetamide], the melting point – broadly, the temperature, or range, at which the solid turns liquid – is 173 to 175 °C. Further, in the series with J774 cells, the IC50 – broadly, the midpoint of a concentration-inhibition curve – came out at 100 nM. For the same molecule, in the series on HepG2 cells, the half-maximal inhibitory concentration (IC50) was 1450 nM.
In turn, `CSc1cc(C)nc(SC)c1NC(=O)CN1CCN(CCSc2nc3ccccc3o2)CC1` [Example 24, 2-[4-[2-(benzoxazol-2-ylthio)ethyl]piperazin-1-yl]-N-(2,4-bis(methylthio)-6-methyl-3-pyridyl)acetamide] displayed a melting point of 140 to 141 °C. Moreover, in series [1], the concentration in solution (solubility at 2 h) was 17000 µg/mL (≈ 33.7 mM).
For `CC(C)c1cccc(C(C)C)c1NC(=O)CCCCCSc1nc2cc(N(C)C)ccc2o1` [Control 8, 6-[5-(N,N-Dimethylamino)-benzoxazol-2-ylthio]-N-(2,6-diisopropylphenyl)hexanamide, reference compound], in series [1], the solubility (commonly the concentration that dissolves in the medium under given conditions) at 2 h was 170 to 180 µg/mL (≈ 0.363 to 0.385 mM).
Take `CC(C)c1cccc(C(C)C)c1NC(=O)CN1CCCN(CCCSc2nc3ccccc3o2)CC1` [Example 13, 2-[4-[3-(benzoxazol-2-ylthio)propyl]-homopiperazin-1-yl]-N-(2,6-diisopropylphenyl)acetamide]: the melting point fell in the range of 109 to 111 °C. Further, in series [1], the concentration in solution (solubility at 2 h) was 7400 µg/mL (≈ 14.5 mM).
Consider `CC(C)c1cccc(C(C)C)c1NC(=O)CCCCCSc1nc2ccccc2o1` [Control 6, 6-(Benzoxazol-2-ylthio)-N-(2,6-diisopropylphenyl)hexanamide, reference compound], for which the solubility at 2 h in series [1] is 0.05 µg/mL (≈ 0.000118 mM).
Molecule `CC(C)c1cccc(C(C)C)c1NC(=O)CN1CCN(CCSc2nc3ncccc3o2)CC1` [Example 6, 2-[4-[2-(oxazolo[4,5-b]pyridine-2-ylthio)ethyl]-piperazin-1-yl]-N-(2,6-diisopropylphenyl)acetamide] had a melting point of 153 to 154 °C. Also, the solubility at 2 h in series [1] was 35000 µg/mL (≈ 72.7 mM).
Molecule `CC(C)c1cccc(C(C)C)c1NC(=O)CN1CCN(CCSc2nc3ccccc3o2)CC1` [Example 1, 2-[4-[2-(benzoxazol-2-ylthio)ethyl]-piperazin-1-yl]-N-(2,6-diisopropylphenyl)acetamide] gave a solubility at 2 h in series [1] of 14000 µg/mL (≈ 29.1 mM).
Consider `CCCCCCCCCN(CC(C)(C)C)C(=O)N[C@H]1CCCC[C@@H]1OC(=O)CCNC(=O)C1OC(C)(C)OCC1(C)C` (stereo partly shown) [Control 3, reference compound], for which the concentration for half-maximal inhibition (IC50) with J774 cells was 320 nM.
With `COC(=O)c1cccc2nc(SCCCN3CCN(CC(=O)Nc4c(C(C)C)cccc4C(C)C)CC3)oc12` [Example 10, 2-[4-[3-(7-methoxycarbonylbenzoxazol-2-ylthio)propyl]piperazin-1-yl]-N-(2,6-diisopropylphenyl)acetamide], the melting point lay in the range of 135 to 136 °C. Besides, the concentration for half-maximal inhibition (IC50) in the series with J774 cells was 270 nM. Further, in the series with HepG2 cells, the IC50 amounted to 4900 nM.
`CC(C)c1cc(O)cc(C(C)C)c1NC(=O)CN1CCN(CCSc2nc3ccccc3[nH]2)CC1` [Example 156, 2-[4-[2-(benzimidazol-2-ylthio)ethyl]piperazin-1-yl]-N-(2,6-diisopropyl-4-hydroxyphenyl)acetamide] came in with a melting point of 241 to 242 °C.
`CC(=O)Oc1ccc(C(C)C)c(NC(=O)CN2CCN(CCSc3nc4ccccc4o3)CC2)c1C(C)C` [Example 63, 2-[4-[2-(benzoxazol-2-ylthio)ethyl]piperazin-1-yl]-N-(2,6-diisopropyl-3-acetyloxyphenyl)acetamide] gave a melting point of 129 to 131 °C.
Molecule `CC(C)c1cccc(C(C)C)c1NC(=O)CCCCCSc1nc2cc(CN(C)C)ccc2o1` [Control 7, 6-[5-(N,N-Dimethylaminomethyl)-benzoxazol-2-ylthio]-N-(2,6-diisopropylphenyl)hexanamide, reference compound] gave a solubility at 2 h in series [1] of 360 to 400 µg/mL (≈ 0.747 to 0.83 mM).
In turn, `CC(C)c1ccc(F)c(C(C)C)c1NC(=O)CN1CCN(CCSc2nc3ccccc3o2)CC1` [Example 155, 2-[4-[2-(benzoxazol-2-ylthio)ethyl]piperazin-1-yl]-N-(2,6-diisopropyl-3-fluorophenyl)acetamide] had a melting point of 142 to 144 °C.
Take `CCOC(=O)COc1cc(C(C)C)c(NC(=O)CN2CCN(CCSc3nc4ccccc4o3)CC2)c(C(C)C)c1` [Example 77, 2-[4-[2-(benzoxazol-2-ylthio)ethyl]piperazin-1-yl]-N-[2,6-diisopropyl-4-ethoxycarbonylmethyloxyphenyl)acetamide]: the melting point fell in the range of 118 to 120 °C.
Still for that read-out and setting: for `CCOCCOc1cc(C(C)C)c(NC(=O)CN2CCN(CCSc3nc4ccccc4o3)CC2)c(C(C)C)c1` [Example 78, 2-[4-[2-(benzoxazol-2-ylthio)ethyl]piperazin-1-yl]-N-[2,6-diisopropyl-4-(2-ethoxyethyl)oxyphenyl)acetamide] the value was 92 to 95 °C.

The values above are taken from patent US6969711B2, “Cyclic diamine compounds and medicine containing the same” (Kowa Company, Ltd., priority 1997, dated 2005).
